Converted amounts (≈) assume the structure as drawn.
How the values were obtained:
[1] = molecular target: BioA (7,8-diaminopelargonic acid synthase) (Escherichia coli, UniProt P12995); assay: recombinant BioA activity, bioA auxotroph feeding assay at […]; assay type: biochemical
[2] = system: E. coli MG1655; assay: microbe, parasite or virus in culture; settings: Escherichia coli, MG1655, 16 h, read-out: MIC (μg/ml) ^a / −bio

Sequence of BioA (7,8-diaminopelargonic acid synthase) (P12995 whole entry): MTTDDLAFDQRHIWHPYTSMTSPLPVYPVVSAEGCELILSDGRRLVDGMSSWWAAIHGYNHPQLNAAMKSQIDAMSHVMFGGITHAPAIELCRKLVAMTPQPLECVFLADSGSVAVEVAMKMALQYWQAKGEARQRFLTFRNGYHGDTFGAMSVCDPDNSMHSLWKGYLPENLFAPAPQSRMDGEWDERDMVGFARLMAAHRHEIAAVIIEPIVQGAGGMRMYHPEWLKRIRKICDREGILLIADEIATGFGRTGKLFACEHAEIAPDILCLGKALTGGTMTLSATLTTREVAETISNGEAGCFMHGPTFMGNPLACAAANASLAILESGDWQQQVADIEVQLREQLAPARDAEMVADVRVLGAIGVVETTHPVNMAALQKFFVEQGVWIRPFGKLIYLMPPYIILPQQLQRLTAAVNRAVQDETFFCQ

| Structure (SMILES) | MIC [2] [µg/mL] | other results |
| --- | --- | --- |
| NNC(=O)CSc1cccc([N+](=O)[O-])c1 [compound 5] | – | % Inhibition ^b / 10 μM / 100 [1]: 84 |
| NNC(=O)CSc1ccc([N+](=O)[O-])cc1 [compound 6] | – | % Inhibition ^b / 1 μM / 100 [1]: 66 |
| CCCC(=O)NN [compound 21] | > 256 | – |
| CC(=O)NN [compound 23] | 128 (≈ 1730 µM) | – |
